In brackets after ≈: the same amount, converted by molar mass. One block for each molecule: values may come before it.
How the values were obtained:
[1] = Kinetic solubility of compound at pH 7.4 by shake flask method; assay type: physicochemical; conditions: buffer, read-out: Kinetic_solubility
[2] = Cmax in CD1 mouse at 5 mg/kg, po by LC-MS/MS analysis; assay type: ADME, organism-based; parameters: route oral, dose 5 mg/kg; conditions: in vivo
[3] = Oral bioavailability in CD1 mouse at 5 mg/kg by LC-MS/MS analysis; assay type: ADME, organism-based; conditions: in vivo
[4] = Ratio of drug concentration in brain to plasma in CD1 mouse at 1 mg/kg, iv measured at 0.5 hrs by LC-MS/MS analysis; assay type: ADME, organism-based
[5] = Drug concentration in CD1 mouse plasma at 1 mg/kg, iv measured at 0.5 hrs by LC-MS/MS analysis; assay type: ADME, organism-based
[6] = Drug concentration in CD1 mouse plasma at 1 mg/kg, iv measured at […] by LC-MS/MS analysis; assay type: ADME, organism-based; conditions: time 0.25 hrs
[7] = Ratio of drug concentration in brain to plasma in CD1 mouse at 1 mg/kg, iv measured at […] by LC-MS/MS analysis; assay type: ADME, organism-based; conditions: time 0.25 hrs
[8] = Drug concentration in CD1 mouse brain at 1 mg/kg, iv measured at 0.5 hrs by LC-MS/MS analysis; assay type: ADME, organism-based; conditions: read-out: Ct
[9] = Drug concentration in CD1 mouse brain at 1 mg/kg, iv measured at […] by LC-MS/MS analysis; assay type: ADME, organism-based; conditions: time 0.25 hrs, read-out: Ct

Compound: COc1cccc(-c2csc(Nc3ccccc3F)n2)c1
- solubility kinetic [1]: 49.3 µM (≈ 14.8 µg/mL)

Compound: Fc1ccccc1Nc1nc(-c2ccccc2)cs1
- solubility kinetic [1]: < 1 µM

Compound: O=C(O)c1cccc(-c2csc(-c3ccccc3F)n2)c1
- solubility kinetic [1]: 55.2 µM (≈ 16.5 µg/mL)

Compound: O=C(O)c1cccc(-c2csc(Nc3ccccc3F)n2)c1
- Cmax [2]: 0.101 µg/mL
- solubility kinetic [1]: 80.9 µM (≈ 25.4 µg/mL)
- bioavailability [3]: 26.6%

Compound: O=C(O)c1cccc(-c2csc(Nc3ccc(F)cc3)n2)c1
- solubility kinetic [1]: 77.7 µM (≈ 24.4 µg/mL)

Compound: CN(c1ccc(F)cc1)c1ncc(-c2cccc(C(=O)O)c2)o1
- Kp at 0.5 h [4]: 0.0137
- concentration at 0.5 h [5]: 0.529 µg/mL
- concentration at […] [6]: 0.788 µg/mL
- Kp at […] [7]: 0.0213
- solubility kinetic [1]: 277 µM (≈ 86.5 µg/mL)
- concentration at 0.5 h [8]: 7.27 ng/g
- concentration at […] [9]: 16.4 ng/g

Compound: O=C(O)c1cccc(-c2nc(Nc3ccccc3F)cs2)c1
- solubility kinetic [1]: > 100 µM

Compound: OCc1cccc(-c2csc(Nc3ccccc3F)n2)c1
- solubility kinetic [1]: 30.9 µM (≈ 9.28 µg/mL)

Compound: O=C(O)c1ccc(-c2csc(-c3ccccc3F)n2)cc1
- solubility kinetic [1]: 38.4 µM (≈ 11.5 µg/mL)

Compound: Fc1cccc(-c2csc(Nc3ccccc3F)n2)c1
- solubility kinetic [1]: < 1 µM

Compound: O=C(O)c1cccc(-c2csc(Nc3ccccc3)n2)c1
- solubility kinetic [1]: 70.2 µM (≈ 20.8 µg/mL)

Further lines, results first:

- solubility kinetic [1]: 1.2 µM (≈ 0.341 µg/mL)
Compound: COc1cccnc1Nc1nc(-c2ccccn2)cs1

- solubility kinetic [1]: 72.5 µM (≈ 18.3 µg/mL)
Compound: Cc1cccnc1Nc1ncc(-c2ccccn2)o1

- solubility kinetic [1]: 70.5 µM (≈ 20 µg/mL)
Compound: O=C(O)c1cccc(-c2noc(-c3ccccc3F)n2)c1

- Kp at 0.5 h [4]: 4.81
- concentration at 0.5 h [5]: 0.0744 µg/mL
- concentration at […] [6]: 0.119 µg/mL
- Kp at […] [7]: 6.93
- concentration at 0.5 h [8]: 357 ng/g
- concentration at […] [9]: 821 ng/g
Compound: Cc1noc(-c2cccc(-c3cnc(Nc4ccc(F)cc4)o3)c2)n1

- solubility kinetic [1]: 69 µM (≈ 21.8 µg/mL)
Compound: O=C(O)c1cccc(-c2cnc(Nc3ccc(F)cc3F)o2)c1

- solubility kinetic [1]: 69.5 µM (≈ 19.7 µg/mL)
Compound: O=C(O)c1cccc(-c2cnc(-c3ccccc3F)o2)c1

- solubility kinetic [1]: 15.2 µM (≈ 4.09 µg/mL)
Compound: Nc1cccc(-c2cnc(Nc3ccc(F)cc3)o2)c1

- solubility kinetic [1]: 3.1 µM (≈ 0.965 µg/mL)
Compound: CNC(=O)c1cccc(-c2cnc(Nc3ccc(F)cc3)o2)c1

- solubility kinetic [1]: < 1 µM
Compound: COC(=O)c1ccc(-c2cnc(Nc3ccccc3F)o2)cc1

- solubility kinetic [1]: < 1 µM
Compound: COC(=O)c1cccc(-c2cnc(Nc3ccc(F)cc3)o2)c1

- Kp at 0.5 h [4]: 1.02
- concentration at 0.5 h [5]: 0.0311 µg/mL
- concentration at […] [6]: 0.164 µg/mL
- Kp at […] [7]: 1.21
- solubility kinetic [1]: 60.4 µM (≈ 19.7 µg/mL)
- concentration at 0.5 h [8]: 30.9 ng/g
- concentration at […] [9]: 200 ng/g
Compound: CNC(=O)c1cccc(-c2cnc(N(C)c3ccc(F)cc3)o2)c1

- Kp at 0.5 h [4]: 14.3
- concentration at 0.5 h [5]: 0.021 µg/mL
- concentration at […] [6]: 0.0328 µg/mL
- Kp at […] [7]: 14.5
- solubility kinetic [1]: 50.8 µM (≈ 14.4 µg/mL)
- concentration at 0.5 h [8]: 297 ng/g
- concentration at […] [9]: 473 ng/g
Compound: NCc1cccc(-c2cnc(Nc3ccc(F)cc3)o2)c1

- solubility kinetic [1]: 45.4 µM (≈ 12.4 µg/mL)
Compound: Fc1cccnc1Nc1nc(-c2ccccn2)cs1

- solubility kinetic [1]: 5 µM (≈ 1.56 µg/mL)
Compound: CC(=O)Nc1cccc(-c2cnc(Nc3ccc(F)cc3)o2)c1

- solubility kinetic [1]: < 1 µM
Compound: COC(=O)c1cccc(-c2cnc(Nc3cccc(F)c3)o2)c1

- Cmax [2]: 0.092 µg/mL
- bioavailability [3]: 15.6%
Compound: O=C(O)c1cccc(-c2cnc(Nc3ccccc3F)o2)c1

— ChEMBL document CHEMBL4732087, “Structure-activity relationship (SAR) studies of N-(3-methylpyridin-2-yl)-4-(pyridin-2-yl)thiazol-2-amine (SRI-22819) as NF-ҡB activators for the treatment of ALS” (Eur J Med Chem, 2021)
